{"source": "patent US20260250290A1", "about": "(BRISTOL-MYERS SQUIBB COMPANY, priority 2023, published 2026)", "note": "Counter-ions that a name gives are not always drawn.", "data": [{"molecular_target": "T1, SGK1 (Homo sapiens, UniProt O00141)", "T1 sequence (O00141 1-431)": "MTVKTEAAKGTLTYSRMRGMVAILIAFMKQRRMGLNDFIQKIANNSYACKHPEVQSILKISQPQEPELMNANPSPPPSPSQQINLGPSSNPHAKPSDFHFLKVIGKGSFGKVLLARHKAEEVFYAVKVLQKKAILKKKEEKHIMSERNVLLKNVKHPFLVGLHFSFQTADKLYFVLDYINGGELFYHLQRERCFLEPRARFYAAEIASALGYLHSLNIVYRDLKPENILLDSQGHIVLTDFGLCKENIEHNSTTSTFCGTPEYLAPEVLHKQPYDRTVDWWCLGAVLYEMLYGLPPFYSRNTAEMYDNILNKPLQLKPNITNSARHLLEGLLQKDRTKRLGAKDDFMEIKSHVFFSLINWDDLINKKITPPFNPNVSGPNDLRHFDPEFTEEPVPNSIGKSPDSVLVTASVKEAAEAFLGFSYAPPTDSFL", "test": "SGK1 inhibition Assay B (Echo mass spectrometry of phosphorylated peptide product)", "type": "biochemical", "conditions": "60 min at room temperature", "units": {"IC50": "nM"}, "values": [{"smiles": "CN1CCN(c2nccc(C(=O)N[C@@H]3CCCN(c4cc(-c5cnc(-n6cnnn6)nc5)n5ncnc(N)c45)C3)n2)CC1", "note": "[Example 856, (R)-N-(1-(7-(2-(1H-tetrazol-1-yl)pyrimidin-5-yl)-4-aminopyrrolo[2,1-f][1,2,4]triazin-5-yl)piperidin-3-yl)-2-(4-methylpiperazin-1-yl)pyrimidine-4-carboxamide]", "IC50": 16}, {"smiles": "CN1CCN(c2nccc(C(=O)N[C@@H]3CCCN(c4cc(-c5cnc(-n6cnnn6)c(F)c5)n5ncnc(N)c45)C3)n2)CC1", "note": "[Example 858]", "IC50": 4}, {"smiles": "COC(=O)N1CC=C(c2cc(N3CCC[C@@H](NC(=O)c4ccnc(N5CCN(C)CC5)n4)C3)c3c(N)ncnn23)C1", "note": "[Example 859, methyl (R)-3-(4-amino-5-(3-(2-(4-methylpiperazin-1-yl)pyrimidine-4-carboxamido)piperidin-1-yl)pyrrolo[2,1-f][1,2,4]triazin-7-yl)-2,5-dihydro-1H-pyrrole-1-carboxylate]", "IC50": 5}, {"smiles": "N#Cc1ccc(C(=O)N[C@@H]2CCCN(c3cc(-c4cnc(-n5cnnn5)c(F)c4)n4ncnc(N)c34)C2)s1", "note": "[Example 860, (R)-N-(1-(4-amino-7-(5-fluoro-6-(1H-tetrazol-1-yl)pyridin-3-yl)pyrrolo[2,1-f][1,2,4]triazin-5-yl)piperidin-3-yl)-5-cyanothiophene-2-carboxamide]", "IC50": 3}, {"smiles": "CC(=O)N1CC=C(c2cc(N3CCC[C@@H](NC(=O)c4sc(Cl)cc4OCC45CCCN4CCC5)C3)c3c(N)ncnn23)C1", "note": "[Example 917, N-[(3R)-1-[7-(1-acetyl-2,5-dihydro-1H-pyrrol-3-yl)-4-aminopyrrolo[2,1-f][1,2,4]triazin-5-yl]piperidin-3-yl]-5-chloro-3-[(hexahydro-1H-pyrrolizin-7a-yl)methoxy]thiophene-2-carboxamide]", "IC50": 3}, {"smiles": "Cc1nc(O[C@@H]2CC[C@H]3[C@H](CCN3C)C2)c(C(=O)N[C@@H]2CCCN(c3cc(-c4ccc(C(N)=O)c(F)c4)n4ncnc(N)c34)C2)s1", "note": "[Example 918, 4-{[(3aR,5R,7aS)-1-methyl-octahydro-1H-indol-5-yl]oxy}-N-[(3R)-1-[4-amino-7-(4-carbamoyl-3-fluorophenyl)pyrrolo[2,1-f][1,2,4]triazin-5-yl]piperidin-3-yl]-2-methyl-1,3-thiazole-5-carboxamide]", "IC50": 2}, {"smiles": "Cc1nc(OCCCN(C)C)c(C(=O)N[C@@H]2CCCN(c3cc(-c4cnc(-n5cnnn5)c(F)c4)n4ncnc(N)c34)C2)s1", "note": "[Example 919, N-[(3R)-1-{4-amino-7-[5-fluoro-6-(1H-1,2,3,4-tetrazol-1-yl)pyridin-3-yl]pyrrolo[2,1-f][1,2,4]triazin-5-yl}piperidin-3-yl]-4-[3-(dimethylamino)propoxy]-2-methyl-1,3-thiazole-5-carboxamide]", "IC50": 5}, {"smiles": "CC(=O)N1CC=C(c2cc(N3CCC[C@@H](NC(=O)c4sc(C#N)cc4O[C@@H]4C[C@H]5CC[C@@H](C4)N5C)C3)c3c(N)ncnn23)C1", "note": "[Example 920, N—((R)-1-(7-(1-acetyl-2,5-dihydro-1H-pyrrol-3-yl)-4-aminopyrrolo[2,1-f][1,2,4]triazin-5-yl)piperidin-3-yl)-5-cyano-3-(((1R,3s,5S)-8-methyl-8-azabicyclo[3.2.1]octan-3-yl)oxy)thiophene-2-carboxamide]", "IC50": 2}, {"smiles": "CC(=O)N1CC=C(c2cc(N3CCC[C@@H](NC(=O)c4sc(Cl)cc4OCC(C)(C)O)C3)c3c(N)ncnn23)C1", "note": "[Example 921, (R)—N-(1-(7-(1-acetyl-2,5-dihydro-1H-pyrrol-3-yl)-4-aminopyrrolo[2,1-f][1,2,4]triazin-5-yl)piperidin-3-yl)-5-chloro-3-(2-hydroxy-2-methylpropoxythiophene-2-carboxamide TFA salt]", "IC50": 7}, {"smiles": "CC(=O)N1CC=C(c2cc(N3CCC[C@@H](NC(=O)c4cc5[nH]ccc5s4)C3)c3c(N)ncnn23)C1", "note": "[Example 923, (R)—N-(1-(7-(1-acetyl-2,5-dihydro-1H-pyrrol-3-yl)-4-aminopyrrolo[2,1-f][1,2,4]triazin-5-yl)piperidin-3-yl)-4H-thieno[3,2-b]pyrrole-2-carboxamide]", "IC50": 1}, {"smiles": "CN1[C@@H]2CC[C@H]1C[C@H](Oc1cc(Cl)sc1C(=O)N[C@@H]1CCCN(c3cc(-c4ccc5c(c4)COC5=O)n4ncnc(N)c34)C1)C2", "note": "[Example 924, N—((R)-1-(4-amino-7-(1-oxo-1,3-dihydroisobenzofuran-5-yl)pyrrolo[2,1-f][1,2,4]triazin-5-yl)piperidin-3-yl)-5-chloro-3-(((1R,3s,5S)-8-methyl-8-azabicyclo[3.2.1]octan-3-yl)oxy)thiophene-2-carboxamide]", "IC50": 0.9}, {"smiles": "CN1[C@@H]2CC[C@H]1C[C@H](Oc1cc(Cl)sc1C(=O)N[C@@H]1C[C@@H](F)CN(c3cc(-c4ccc(-n5cnnn5)c(F)c4)n4ncnc(N)c34)C1)C2", "note": "[Example 925, N-((3R,5R)-1-(4-amino-7-(3-fluoro-4-(1H-tetrazol-1-yl)phenyl)pyrrolo[2,1-f][1,2,4]triazin-5-yl)-5-fluoropiperidin-3-yl)-5-chloro-3-(((1R,3s,5S)-8-methyl-8-azabicyclo[3.2.1]octan-3-yl)oxy)thiophene-2-carboxamide, TFA salt]", "IC50": 0.4}, {"smiles": "CN1[C@@H]2CC[C@H]1C[C@H](Oc1cc(Cl)sc1C(=O)N[C@@H]1CCCN(c3cc(C4=CCOC4)n4ncnc(N)c34)C1)C2", "note": "[Example 926, N—((R)-1-(4-amino-7-(2,5-dihydrofuran-3-yl)pyrrolo[2,1-f][1,2,4]triazin-5-yl)piperidin-3-yl)-5-chloro-3-(((1R,3s,5S)-8-methyl-8-azabicyclo[3.2.1]octan-3-yl)oxy)thiophene-2-carboxamide, TFA salt]", "IC50": 0.8}, {"smiles": "CN1[C@@H]2CC[C@H]1C[C@H](Oc1cc(Cl)sc1C(=O)N[C@@H]1CCCN(c3cc(C4=CC(=O)OC4)n4ncnc(N)c34)C1)C2", "note": "[Example 927, N—((R)-1-(4-amino-7-(5-oxo-2,5-dihydrofuran-3-yl)pyrrolo[2,1-f][1,2,4]triazin-5-yl)piperidin-3-yl)-5-chloro-3-(((1R,3s,5S)-8-methyl-8-azabicyclo[3.2.1]octan-3-yl)oxy)thiophene-2-carboxamide, TFA salt]", "IC50": 0.1}, {"smiles": "Cc1nc(O[C@@H]2C[C@H]3CC[C@@H](C2)N3C)c(C(=O)N[C@@H]2CCCN(c3cc(-c4csc(C(C)O)c4)n4ncnc(N)c34)C2)s1", "note": "(stereo partly drawn) [Example 928, N-((3R)-1-(4-amino-7-(5-(1-hydroxyethyl)thiophen-3-yl)pyrrolo[2,1-f][1,2,4]triazin-5-yl)piperidin-3-yl)-2-methyl-4-(((1R,3s,5S)-8-methyl-8-azabicyclo[3.2.1]octan-3-yl)oxy)thiazole-5-carboxamide, TFA salt]", "IC50": 0.1}, {"smiles": "Cc1nc(O[C@@H]2C[C@H]3CC[C@@H](C2)N3C2CC(O)C2)c(C(=O)N[C@@H]2CCCN(c3cc(-c4ccc(-n5cnnn5)c(F)c4)n4ncnc(N)c34)C2)s1", "note": "(stereo partly drawn) [Example 929, N—((R)-1-(4-amino-7-(3-fluoro-4-(1H-tetrazol-1-yl)phenyl)pyrrolo[2,1-f][11,2,4]triazin-5-yl)piperidin-3-yl)-4-(((1R,3s,5S)-8-(3-hydroxycyclobutyl)-8-azabicyclo[3.2.1]octan-3-yl)oxy)-2-methylthiazole-5-carboxamide TFA salt]", "IC50": 1}, {"smiles": "Cc1nc(O[C@H]2CC[C@]3(CCCN3)CC2)c(C(=O)N[C@@H]2CCCN(c3cc(-c4ccc(C(N)=O)c(F)c4)n4ncnc(N)c34)C2)s1", "note": "[Example 930, 4-(((5S,8r)-1-azaspiro[4.5]decan-8-yl)oxy)-N—((R)-1-(4-amino-7-(4-carbamoyl-3-fluorophenyl)pyrrolo[2,1-f][1,2,4]triazin-5-yl)piperidin-3-yl)-2-methylthiazole-5-carboxamide, TFA salt]", "IC50": 1}, {"smiles": "Cc1nc(O[C@H]2CC[C@]3(CCCN3C)CC2)c(C(=O)N[C@@H]2CCCN(c3cc(-c4ccc(C(N)=O)c(F)c4)n4ncnc(N)c34)C2)s1", "note": "[Example 931, N—((R)-1-(4-amino-7-(4-carbamoyl-3-fluorophenyl)pyrrolo[2,1-f][1,2,4]triazin-5-yl)piperidin-3-yl)-2-methyl-4-(((5S,8r)-1-methyl-1-azaspiro[4.5]decan-8-yl)oxy)thiazole-5-carboxamide, TFA salt]", "IC50": 0.5}, {"smiles": "CNC(=O)c1ccc(-c2cc(N3CCC[C@@H](NC(=O)c4sc(C)nc4O[C@H]4CC[C@@H](N(C)C)CC4)C3)c3c(N)ncnn23)cc1F", "note": "[Example 932, N—((R)-1-(4-amino-7-(3-fluoro-4-(methylcarbamoyl)phenyl)pyrrolo[2,1-f][1,2,4]triazin-5-yl)piperidin-3-yl)-4-(((1s,4S)-4-(dimethylamino)cyclohexyl)oxy)-2-methylthiazole-5-carboxamide]", "IC50": 3}, {"smiles": "Cc1cc(O[C@@H]2C[C@H]3CC[C@@H](C2)N3C)c(C(=O)N[C@@H]2CCCN(c3cc(-c4ccc(-n5cc(CCC#N)nn5)c(F)c4)n4ncnc(N)c34)C2)s1", "note": "[Example 933, N—((R)-1-(4-Amino-7-(4-(4-(2-cyanoethyl)-1H-1,2,3-triazol-1-yl)-3-fluorophenyl)pyrrolo[2,1-f][1,2,4]triazin-5-yl)piperidin-3-yl)-5-methyl-3-(((1R,3s,5S)-8-methyl-8-azabicyclo[3.2.1]octan-3-yl)oxy)thiophene-2-carboxamide]", "IC50": 0.8}, {"smiles": "Cc1nc(O[C@H]2CC[C@@](C)(N)CC2)c(C(=O)N[C@@H]2CCCN(c3cc(-c4ccc(-n5cnnn5)c(F)c4)n4ncnc(N)c34)C2)s1", "note": "[Example 934, 4-(((1s,4S)-4-Amino-4-methylcyclohexyl)oxy)-N—((R)-1-(4-amino-7-(3-fluoro-4-(1H-tetrazol-1-yl)phenyl)pyrrolo[2,1-f][1,2,4]triazin-5-yl)piperidin-3-yl)-2-methylthiazole-5-carboxamide]", "IC50": 0.5}]}]}
